Assay [1] has as its target LPA2 receptors from the rhesus (Macaca mulatta, UniProt I2CXV3). Kind of assay: Calcium-mobilization assay (FURA-2), rhesus LPA2. In kind it is cell-based. The protocol: (§1) We investigated structure-activity relationships across species, LPAR subtypes and between Rx100 and two known process impurities encountered in manufacture: Rx103 (‘E’ isomer) and Rx200 (oleyl phosphate and impurity, which can be an Rx100 degradant along with oleyl alcohol). Rx100, Rx103, Rx200 and native LPA were investigated at different human LPAR subtypes. In addition, the activity of these compounds was evaluated at LPA2 receptors from the rhesus, rat and mouse species. Human LPA1/2/3 subtypes were transfected into mouse embryonic fibroblasts (MEF) or rat hepatoma cells (RH7777)—both of which are normally non-responsive or null to LPA. Human LPA4 was transfected into Chinese hamster ovary (CHO) cells and LPA5 into the B103 neuroblastoma cell line. […] The B103 rat neuroblastoma cell line is endogenously nonresponsive to LPA but expresses heterologous LPA5 receptors well. […] LPAR activation elicits a G-protein-mediated transient rise in intracellular calcium level that is proportional to the concentration of LPA applied. The intracellular calcium level was quantified by the calcium-selective fluorescent indicator FURA-2 (e.g., increased intracellular calcium surge=increased fluorescence).

The next assay concerns the target T1, LPA5 (Homo sapiens, UniProt Q9H1C0).
T1 construct: expressed in transfected cells; host or cells: B103 rat neuroblastoma
Kind of assay: Calcium-mobilization assay (FURA-2), LPA5 in B103 neuroblastoma cells. In kind it is cell-based. The method, then: as §1

Assay [2] has as its target T2, LPA2 receptors from the mouse (Mus musculus, UniProt Q9JL06).
T2 construct: expressed in transfected cells
Kind of assay: Calcium-mobilization assay (FURA-2), mouse LPA2. In kind it is cell-based. The protocol:
as §1

The next assay has as its target T3, Human LPA4 (Homo sapiens, UniProt Q99677).
T3 construct: expressed in transfected cells; host or cells: CHO
Put plainly: Calcium-mobilization assay (FURA-2), human LPA4 in CHO cells. The class given is cell-based. The method, then:
as §1

The target in another assay is Human LPA2 (Homo sapiens, UniProt Q9HBW0). Kind of assay: Calcium-mobilization assay (FURA-2), human LPA2 transfected cells. The class given is cell-based. More on the design: expressed in transfected cells; host or cells: mouse embryonic fibroblasts (MEF) or rat hepatoma RH7777. The protocol:
as §1

Assay [3] has as its system lysophosphatidic acid receptor (LPAR). Kind of assay: Calcium-mobilization assay, overall statements for all species and LPAR subtypes tested. The class given is cell-based.
Excerpt: The compound was medicinally designed as an LPA analog with the goal of decreasing the otherwise rapid metabolism of LPA itself. […] These receptors are ubiquitous by tissue and in those eukaryotes investigated. […] Thus, the mechanism of drug action for GI-ARS protection is activation of the transmembrane G protein-coupled lysophosphatidic acid receptor (LPAR) and, more specifically, the LPAR2 GPCR subtype. The primary pharmacodynamics is that LPAR2 activation leads to a cascade of intracellular events that switch cells from an apoptotic to a repair/regenerative pathway.
as §1
Oleyl alcohol is, of course, a common component of many non-toxic ingested or dermally applied substances.

A further assay deals with T4, Human LPA3 (Homo sapiens, UniProt Q9UBY5).
T4 construct: expressed in transfected cells; host or cells: mouse embryonic fibroblasts (MEF) or rat hepatoma RH7777
T4 sequence (Q9UBY5 1-353): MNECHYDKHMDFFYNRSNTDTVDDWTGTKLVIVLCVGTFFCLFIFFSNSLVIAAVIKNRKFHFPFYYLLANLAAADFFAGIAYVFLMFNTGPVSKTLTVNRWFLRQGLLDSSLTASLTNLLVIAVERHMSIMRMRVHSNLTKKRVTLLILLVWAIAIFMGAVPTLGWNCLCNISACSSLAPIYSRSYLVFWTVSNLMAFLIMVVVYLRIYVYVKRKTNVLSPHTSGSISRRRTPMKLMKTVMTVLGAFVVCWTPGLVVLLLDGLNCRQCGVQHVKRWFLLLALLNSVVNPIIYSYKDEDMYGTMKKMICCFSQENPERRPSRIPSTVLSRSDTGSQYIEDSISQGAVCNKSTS
Put plainly: Calcium-mobilization assay (FURA-2), human LPA3 transfected cells. In kind it is cell-based. The note with it: for EC50 / Emax (% of LPA): mean. The method, then:
as §1

Assay [4] addresses LPA2 receptors from the rat (Rattus norvegicus, UniProt A0ABK0LT65). Kind of assay: Calcium-mobilization assay (FURA-2), rat LPA2. The class given is cell-based. The protocol:
as §1

A further assay deals with T5, Human LPA1 (Homo sapiens, UniProt Q92633).
T5 construct: expressed in transfected cells; host or cells: mouse embryonic fibroblasts (MEF)
T5 sequence (Q92633 whole entry): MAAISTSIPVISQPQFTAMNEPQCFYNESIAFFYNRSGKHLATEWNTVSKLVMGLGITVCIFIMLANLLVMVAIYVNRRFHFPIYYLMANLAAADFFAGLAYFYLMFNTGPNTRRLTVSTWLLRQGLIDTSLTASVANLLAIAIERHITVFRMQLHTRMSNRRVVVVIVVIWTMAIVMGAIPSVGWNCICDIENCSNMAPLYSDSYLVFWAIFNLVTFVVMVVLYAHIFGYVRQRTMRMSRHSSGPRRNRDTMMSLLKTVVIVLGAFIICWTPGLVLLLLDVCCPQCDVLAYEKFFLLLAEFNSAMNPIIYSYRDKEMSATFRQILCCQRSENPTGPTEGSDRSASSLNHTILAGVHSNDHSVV
Kind of assay: Calcium-mobilization assay (FURA-2), human LPA1 transfected cells. In kind it is cell-based. The note with it: for EC50 / Emax (% of LPA): mean. The protocol:
as §1

The test system of the next assay is Control CHO. Kind of assay: Calcium-mobilization assay, untransfected Control CHO cells. In kind it is cell-based, Chinese hamster. The protocol: as §1
[5] abbreviates: RH7777, read-out: Emax (% of LPA).

Results on two molecules are retold here after patent US20170226139A1, “CRYSTALLINE SALTS OF (Z)-O-OCTADEC-9-EN-1-YL O,O-DIHYDROGEN PHOSPHOROTHIOATE” (priority 2013, published 2017).

By EC50 is commonly meant the concentration giving half of the maximal effect. Usually Emax stands for the greatest response seen or fitted, relative to the assay's reference.

Molecules are shown by their SMILES. Like-named read-outs stand apart in the source and are kept apart here.

T1 sequence (Q9H1C0 whole entry): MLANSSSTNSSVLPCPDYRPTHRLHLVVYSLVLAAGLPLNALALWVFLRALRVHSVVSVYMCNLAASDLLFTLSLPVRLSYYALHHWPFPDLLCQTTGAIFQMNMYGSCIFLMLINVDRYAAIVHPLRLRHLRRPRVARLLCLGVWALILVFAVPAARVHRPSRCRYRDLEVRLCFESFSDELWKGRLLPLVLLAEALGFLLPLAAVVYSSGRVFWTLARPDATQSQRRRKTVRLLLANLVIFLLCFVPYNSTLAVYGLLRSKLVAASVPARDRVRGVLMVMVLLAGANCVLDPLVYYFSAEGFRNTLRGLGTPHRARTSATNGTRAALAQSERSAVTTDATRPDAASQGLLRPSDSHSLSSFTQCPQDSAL
Sequence of LPA2 receptors from the rat (A0ABK0LT65 1-348): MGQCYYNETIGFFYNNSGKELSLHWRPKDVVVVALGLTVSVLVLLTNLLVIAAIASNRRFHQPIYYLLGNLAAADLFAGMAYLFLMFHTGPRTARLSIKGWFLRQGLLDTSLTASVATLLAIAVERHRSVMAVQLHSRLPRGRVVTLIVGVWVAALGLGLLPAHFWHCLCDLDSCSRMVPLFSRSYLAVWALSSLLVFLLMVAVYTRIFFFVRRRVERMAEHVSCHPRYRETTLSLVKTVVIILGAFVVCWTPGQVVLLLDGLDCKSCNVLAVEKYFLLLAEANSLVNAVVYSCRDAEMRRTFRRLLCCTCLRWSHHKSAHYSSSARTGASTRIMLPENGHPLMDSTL
Sequence of LPA2 receptors from the rhesus (I2CXV3 1-351): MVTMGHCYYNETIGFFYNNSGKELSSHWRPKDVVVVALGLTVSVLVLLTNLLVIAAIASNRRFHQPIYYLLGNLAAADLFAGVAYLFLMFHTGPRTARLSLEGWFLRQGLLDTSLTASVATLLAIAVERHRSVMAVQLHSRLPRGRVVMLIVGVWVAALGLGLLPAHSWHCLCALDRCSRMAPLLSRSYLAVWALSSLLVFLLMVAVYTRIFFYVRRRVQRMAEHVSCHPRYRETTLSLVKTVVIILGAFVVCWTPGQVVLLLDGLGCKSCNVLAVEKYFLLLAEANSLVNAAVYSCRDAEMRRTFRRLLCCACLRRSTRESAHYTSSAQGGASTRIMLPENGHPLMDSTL
T2 sequence (Q9JL06 whole entry): as the sequence (A0ABK0LT65 1-348) above, with V153A, V189A, F211Y, T310M, H316S, H321R, S324A, R327Q, H341R counted along it
Sequence of Human LPA2 (Q9HBW0 whole entry): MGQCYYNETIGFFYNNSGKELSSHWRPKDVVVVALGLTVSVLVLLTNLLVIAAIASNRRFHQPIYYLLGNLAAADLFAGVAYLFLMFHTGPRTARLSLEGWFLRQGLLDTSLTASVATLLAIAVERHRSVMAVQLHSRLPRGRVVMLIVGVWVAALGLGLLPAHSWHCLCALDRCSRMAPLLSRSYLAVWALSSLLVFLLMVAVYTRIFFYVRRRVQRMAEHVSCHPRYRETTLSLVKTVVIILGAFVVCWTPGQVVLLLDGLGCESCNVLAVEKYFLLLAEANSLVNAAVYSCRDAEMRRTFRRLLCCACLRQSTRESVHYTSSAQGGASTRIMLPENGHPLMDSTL
T3 sequence (Q99677 whole entry): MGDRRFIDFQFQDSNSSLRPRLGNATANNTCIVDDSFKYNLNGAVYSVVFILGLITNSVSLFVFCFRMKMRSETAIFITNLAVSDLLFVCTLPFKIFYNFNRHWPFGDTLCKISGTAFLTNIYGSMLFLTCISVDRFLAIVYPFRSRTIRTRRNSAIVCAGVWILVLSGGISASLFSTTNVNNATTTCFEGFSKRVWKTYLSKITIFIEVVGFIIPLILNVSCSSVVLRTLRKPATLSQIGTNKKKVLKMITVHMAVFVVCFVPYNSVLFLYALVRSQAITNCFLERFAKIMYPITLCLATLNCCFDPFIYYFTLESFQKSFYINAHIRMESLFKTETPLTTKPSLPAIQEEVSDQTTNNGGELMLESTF

For the molecule `CCCCCCCC/C=C/CCCCCCCCOP(O)(O)=S` [Rx103], the EC50 was 133 nM in assay [1]; 83 nM at LPA5; 355 nM in assay [2]; greater than 5000 nM on Human LPA4; 241 nM on Human LPA2; 61 nM on Human LPA3 (EC50 [nM], LPA3 DKO MEF, human). Moreover, the EC50 is 74 nM at Human LPA3 (EC50 [nM], LPA3 RH7777, human); 133 nM in assay [4]; 367 nM at Human LPA1 (EC50 [nM], LPA1 DKO MEF, human); 1710 nM on Human LPA1 (EC50 [nM], LPA1 RH7777, human); greater than 5000 nM in the assay with Control CHO (Cricetulus griseus, CHO). Further, the Emax turned out to be 90% in assay [1] (read-out: Emax (% of LPA)); 103% at LPA5 (B103, read-out: Emax (% of LPA)); 100% in assay [2] (read-out: Emax (% of LPA)); 88% at Human LPA4 (CHO, read-out: Emax (% of LPA)); 70% at Human LPA2 (read-out: Emax (% of LPA)); 77% on Human LPA3 (setting [5]). Moreover, the Emax at Human LPA3 (read-out: Emax (% of LPA)) was determined as 100%; in assay [4] (read-out: Emax (% of LPA)) it was 87.6%; at Human LPA1 (setting [5]), 75%; at Human LPA1 (read-out: Emax (% of LPA)) it was 90%; in the assay on Control CHO (Cricetulus griseus, CHO, read-out: Emax (% of LPA)), 12%. Further, the “LPAR activation” value in assay [3] is “has activity but has a uniformly reduced EC50 and Emax”.

As for `CCCCCCCC/C=C\CCCCCCCCOP(=O)(O)O` [Rx200, oleyl phosphate], the “EC50 [nM]” value in assay [1] (LPA2 DKO MEF, rhesus, mean) was “No”; in assay [2] (LPA2 DKO MEF, mouse, mean), “No”; on Human LPA2 (LPA2 DKO MEF, human, mean) it was “No”; in [4] (LPA2 DKO MEF, rat, mean), “No”. The “Emax (% of LPA)” value in [1] (LPA2 DKO MEF, rhesus, mean) is reported as “No”; on LPA5 (LPA5 B103, human, mean) it was 100 % of LPA; in assay [2] (LPA2 DKO MEF, mouse, mean), “No”; at Human LPA4 (LPA4 CHO, human, mean), 70 % of LPA; on Human LPA2 (LPA2 DKO MEF, human, mean) it was “No”; at Human LPA3 (LPA3 DKO MEF, human), 34 % of LPA. The “Emax (% of LPA)” value on Human LPA3 (LPA3 RH7777, human) is given as 61 % of LPA; in assay [4] (LPA2 DKO MEF, rat, mean), “No”; at Human LPA1 (LPA1 DKO MEF, human) it was 53 % of LPA; at Human LPA1 (LPA1 RH7777, human), 83 % of LPA; in the assay with Control CHO (Control CHO (untransfected; endogenously expresses LPA1)), 12%. In addition, the EC50 on LPA5 (LPA5 B103, human, mean, read-out: EC50) is 167 nM; on Human LPA4 (LPA4 CHO, human, mean, read-out: EC50), 737 nM; at Human LPA3 (LPA3 DKO MEF, human, read-out: EC50), greater than 5000 nM; at Human LPA3 (LPA3 RH7777, human, read-out: EC50), 747 nM; at Human LPA1 (LPA1 DKO MEF, human, read-out: EC50), 1360 nM; at Human LPA1 (LPA1 RH7777, human, read-out: EC50), 328 nM. The EC50 in the assay on Control CHO (Control CHO (untransfected; endogenously expresses LPA1), read-out: EC50) was 965 nM. In addition, the “LPAR activation” value in [3] was “virtually inactive”.
